Experimental data as given in patent USRE48461E1, “Modulation of androgen receptor expression” (Ionis Pharmaceuticals, Inc., priority 2012, dated 2021).

Legend:
[1] = system: AR mRNA; test: Time-course AR mRNA expression in C4-2B cells (8, 24, 48 hours); format: cell-based, human; details: for Percent expression of AR compared to the control group in 8 hours / Percent expression of AR compared to the control group in 24 hours / Percent expression of AR compared to the control group in 48 hours: C4-2B cells
Protocol: C4-2B cells were plated at 1,000 cells per well in complete medium. […] After a treatment period of 8 hours, 24 hours, and 48 hours, AR expression was measured with primer probe set hAR-LTS00943.

[2] = system: AR mRNA; test: AR RNA expression in LNCaP cells (complete, CSS, CSS+DHT medium); format: cell-based, human; details: for Percent expression of AR in LNCaP cells cultured in CSS + DHT medium: CSS + DHT (1 nM) medium; for Percent expression of AR in LNCaP cells cultured in CSS + DHT medium / Percent expression of AR in LNCaP cells cultured in CSS medium: 48 hrs; for Percent expression of AR in LNCaP cells cultured in complete medium: 48 hours
[3] = system: TMPRSS2 mRNA; test: TMPRSS2 expression in C4-2 cells; format: cell-based, human; details: 48 hrs; for Percent inhibition of TMPRSS2 expression: C4-2 cells, CSS + DHT medium
Protocol: Cells were plated at 1,000 cells per well. […] After an incubation period of 48 hrs, RNA levels of AR, PSA and TMPRSS2 were measured.
Cells were plated at 2,000 cells per well and cultured in CSS media with 1 nM DHT. […] After an incubation period of 48 hrs, RNA levels of AR, PSA and TMPRSS2 were measured.

[4] = system: AR mRNA; test: AR RNA expression in C4-2B cells (complete, CSS+DHT medium; Example 30); format: cell-based, human; details: 48 hrs
In short: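 C4-2B cells were plated at 1,000 cells per well in complete medium, or at 2,000 cells per well in CSS medium with 1 nM DHT. ISIS 549148 served as the negative control. AR, PSA and TMPRSS2 RNA levels were measured after 48 hrs.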

[5] = system: AR V7 variant mRNA; test: AR V7 variant RNA in 22RV1 cells; format: cell-based, human; details: RNAiMax, 48 hrs
[6] = system: PSA mRNA; test: PSA expression in 22RV1 cells; format: cell-based, human; details: RNAiMax, 48 hrs
In short: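 In 22RV1 cells, full-length AR, AR-V7, PSA and TMPRSS2 RNA measured after 48 h compound incubation. Complete-medium format used 1,000 cells/well; CSS+DHT format used 2,000 cells/well cultured 16 h in CSS medium, with 1 nM DHT added after 4 h.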

[7] = system: MDA-MB-453 tumor; test: Tumor volume in MDA-MB-453 breast cancer orthotopic model; format: in vivo, NSG mice; details: Study 2, MDA-MB-453 model, NSG mice, 50 mg/kg s.c. 5 days per week for 2 weeks

TTGATTTAATGGTTGC [ISIS 560131] (MOE and (S)-cEt gapmer chemistry, further chemistry not given here) [targets intron 1]
Percent expression of AR compared to the control group in 8 hours ([1]; 0.04 μM): 110%
Percent expression of AR compared to the control group in 24 hours ([1]; 0.04 μM): 47%
Percent expression of AR compared to the control group in 48 hours ([1]; 0.04 μM): 33%
Percent expression of AR compared to the control group in 8 hours ([1]; 0.2 μM): 85%
Percent expression of AR compared to the control group in 24 hours ([1]; 0.2 μM): 18%
Percent expression of AR compared to the control group in 48 hours ([1]; 0.2 μM): 5%
Percent expression of AR compared to the control group in 8 hours ([1]; 1 μM): 68%
Percent expression of AR compared to the control group in 24 hours ([1]; 1 μM): 5%
Percent expression of AR compared to the control group in 48 hours ([1]; 1 μM): 6%
Percent expression of AR compared to the control group in 8 hours ([1]; 5.0 μM): 45%
Percent expression of AR compared to the control group in 24 hours ([1]; 5.0 μM): 4%
Percent expression of AR compared to the control group in 48 hours ([1]; 5.0 μM): 4%
AR expression ([1]; C4-2B cells, 8, 24 and 48 hours): reduced AR expression in the cells relative to the control set
Percent expression of AR in LNCaP cells cultured in CSS + DHT medium ([2]; 0.04 μM): 101%
Percent expression of AR in LNCaP cells cultured in CSS + DHT medium ([2]; 0.2 μM): 71%
Percent expression of AR in LNCaP cells cultured in CSS + DHT medium ([2]; 1 μM): 27%
Percent expression of AR in LNCaP cells cultured in CSS + DHT medium ([2]; 5.0 μM): 10%
Percent expression of AR in LNCaP cells cultured in CSS medium ([2]; 0.04 μM): 81%
Percent expression of AR in LNCaP cells cultured in CSS medium ([2]; 0.2 μM): 46%
Percent expression of AR in LNCaP cells cultured in CSS medium ([2]; 1 μM): 16%
Percent expression of AR in LNCaP cells cultured in CSS medium ([2]; 5.0 μM): 5%
Percent expression of AR in LNCaP cells cultured in complete medium ([2]; 0.04 μM): 101%
Percent expression of AR in LNCaP cells cultured in complete medium ([2]; 0.2 μM): 53%
Percent expression of AR in LNCaP cells cultured in complete medium ([2]; 1 μM): 17%
Percent expression of AR in LNCaP cells cultured in complete medium ([2]; 5.0 μM): 7%
Percent inhibition of TMPRSS2 expression ([3]; 0.04 μM): 10%
Percent inhibition of TMPRSS2 expression ([3]; 0.2 μM): 17%
Percent inhibition of TMPRSS2 expression ([3]; 1 μM): 51%
Percent inhibition of TMPRSS2 expression ([3]; 5.0 μM): 78%
Percent inhibition of TMPRSS2 expression in C4-2 cells cultured in complete medium ([3]; 0.04 μM): 29%
Percent inhibition of TMPRSS2 expression in C4-2 cells cultured in complete medium ([3]; 0.2 μM): 62%
Percent inhibition of TMPRSS2 expression in C4-2 cells cultured in complete medium ([3]; 1 μM): 76%
Percent inhibition of TMPRSS2 expression in C4-2 cells cultured in complete medium ([3]; 5.0 μM): 71%
Percent expression of AR ([4]; CSS + DHT medium, 0.04 μM): 55%
Percent expression of AR ([4]; CSS + DHT medium, 0.2 μM): 31%
Percent expression of AR ([4]; CSS + DHT medium, 1 μM): 15%
Percent expression of AR ([4]; CSS + DHT medium, 5.0 μM): 13%
Percent expression of AR ([4]; complete medium, 0.04 μM): 34%
Percent expression of AR ([4]; complete medium, 0.2 μM): 15%
Percent expression of AR ([4]; complete medium, 1 μM): 14%
Percent expression of AR ([4]; complete medium, 5.0 μM): 14%
Percent inhibition of AR V7 variant ([5]; CSS + DHT medium, 1.34 nM): 63%
Percent inhibition of AR V7 variant ([5]; CSS + DHT medium, 4.0 nM): 83%
Percent inhibition of AR V7 variant ([5]; CSS + DHT medium, 13.4 nM): 93%
Percent inhibition of AR V7 variant ([5]; complete medium, 1.34 nM): 12%
Percent inhibition of AR V7 variant ([5]; complete medium, 4.0 nM): 29%
Percent inhibition of AR V7 variant ([5]; complete medium, 13.4 nM): 57%
Percent inhibition of AR V7 variant ([5]; complete medium, 40 nM): 81%
Percent inhibition of PSA expression ([6]; CSS + DHT medium, 1.34 nM): 3%
Percent inhibition of PSA expression ([6]; CSS + DHT medium, 4.0 nM): 50%
Percent inhibition of PSA expression ([6]; CSS + DHT medium, 13.4 nM): 66%
Percent inhibition of PSA expression ([6]; complete medium, 1.34 nM): 10%
Percent inhibition of PSA expression ([6]; complete medium, 4.0 nM): 20%
Percent inhibition of PSA expression ([6]; complete medium, 13.4 nM): 27%
Percent inhibition of PSA expression ([6]; complete medium, 40 nM): 36%
Tumor volumes ([7]; Day 0): 144
Tumor volumes ([7]; Day 8): 261
Tumor volumes ([7]; Day 13): 243
Tumor volumes ([7]; Day 20): 204
Tumor volumes ([7]; Day 23): 232
Tumor volumes ([7]; Day 27): 233
Tumor volumes ([7]; Day 29): 258
